Test results from patent publication US20260256748A1, “LANIFIBRANOR FOR USE IN THE TREATMENT OF SPLANCHNIC VASODILATATION IN A PATIENT WITH A LIVER CONDITION” (INVENTIVA, priority 2023, published 2026).

Assays:
Type in all cases: in vivo, mouse
[1] = test system: Swiss mice with partial portal vein ligation (PPVL); assay: Hemodynamic parameters (flow superior mesenteric artery) in partial portal vein ligation (PPVL) model; settings: lanifibranor 30 mg/kg daily for 7 days, started one week after ligation
Method: (§1) Experiments were carried out using Swiss mice (7 to 10 animals per groups). Portal hypertension was induced using the partial portal vein ligation (PPVL) model. A midline abdominal incision was performed and the portal vein was separated from the surrounding tissue. A ligature (silk cut 5-0) was tied around both portal vein and adjacent 27-gauge blunt-tipped needle. Subsequent removal of the needle yielded a calibrated stenosis of the portal vein. One week after the ligation mice received daily lanifibranor (10 mg/kg or 30 mg/kg) or vehicle in a therapeutic setting for 7 days. The effect of lanifibranor on angiogenesis was evaluated by analyzing hepatic and systemic hemodynamics, serum, hepatic and mesenteric histology. The vascular corrosion casting is a technic allowing the capture of the 3D structure of the vascular bed. Briefly the vascular corrosion casts were obtained by inserting, after euthanasia, a 26-gauge catheter into the ileocolic vein, which was then perfused with Batson n°17 solution. The soft tissue was dissolved overnight in a 25% potassium hydroxide solution. The vascular corrosion casts of the venous mesenteric vasculature were analyzed using μCT.

[2] = test system: Swiss mice with partial portal vein ligation (PPVL); assay: Spleen weight in partial portal vein ligation (PPVL) model; settings: for spleen weight: control 0.38, PPVL 0.63; for reduction of spleen weight: control 0.38, PPVL 0.63% body weight
Method: as §1

[3] = test system: Swiss mice with partial portal vein ligation (PPVL); assay: Corrosion vascular casting of venous mesenteric vasculature analyzed by μCT in PPVL model; settings: for mesenteric vascular wall thickness: control 20.31, PPVL 37.53
Method: as §1

[4] = test system: Swiss mice with partial portal vein ligation (PPVL); assay: Immunohistochemistry staining for CD34 (angiogenesis and vascular expansion) in mesenteric area in PPVL model
Method: as §1, with “μCT. Evaluation of the vasculature system with an immunohistochemistry staining for CD34 allow to highlight the increase of blood vessels in the mesenteric area in PPVL animals. […]” for “μCT.”

SMILES: O=C(O)CCCc1cc2cc(Cl)ccc2n1S(=O)(=O)c1ccc2ncsc2c1 [lanifibranor, 4-[1-(1,3-benzothiazol-6-ylsulfonyl)-5-chloroindol-2-yl]butanoic acid]
- reduction of flow superior mesenteric artery [1]: 51.7%
- spleen weight ([2]; 10 mg/kg daily for 7 days): 0.57 % body weight
- reduction of spleen weight ([2]; 10 mg/kg daily for 7 days): 23.7%
- spleen weight ([2]; 30 mg/kg daily for 7 days): 0.49 % body weight
- reduction of spleen weight ([2]; 30 mg/kg daily for 7 days): 56.1%
- reduction of mesenteric vascular wall thickness ([3]; 10 mg/kg daily for 7 days): 49.8%
- mesenteric vascular wall thickness ([3]; 10 mg/kg daily for 7 days): 28.9 µm
- reduction of mesenteric vascular wall thickness ([3]; 30 mg/kg daily for 7 days): 52.3%
- mesenteric vascular wall thickness ([3]; 30 mg/kg daily for 7 days): 28.5 µm
- expansion of the venous mesenteric vasculature ([3]; lanifibranor treatment, data not shown): reduced
- reduction of staining for CD34 ([4]; 10 mg/kg daily for 7 days): 69.5%
- reduction of staining for CD34 ([4]; 30 mg/kg daily for 7 days): 135.8%
